Data on ten compounds can be found in patent US20240246940A1, “HETEROARYL DERIVATIVE COMPOUND AND USE THEREOF” (VORONOI INC., priority 2021, published 2024).

In experiment [1] the test system is HaCaT cells (EGFR expressing cell line). Briefly: HaCaT cell proliferation inhibitory activity (CellTiter-Glo, 72 hours). The class given is cell-based. The note with it: Homo sapiens. An outline of the steps: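 Plate cells (HaCaT 3000/well, others 5000/well), then allow 24 h or 48 h before dosing, with the longer wait for SK-BR-3 and BT-474. Add compounds as 3-fold series, or 5-fold for N-87, at 11 concentrations each. Read viability luminescence, compute growth % against control and derive GI50.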

Experiment [2] deals with BT-474 cells (HER2 overexpressing cell line). Briefly: BT-474 cell proliferation inhibitory activity (CellTiter-Glo, 120 hours). The note with it: Homo sapiens. The class given is cell-based. The method, then:
To evaluate the cell proliferation inhibitory activity of the compound according to the present invention on HER2 and EGFR kinases, the following method was performed using HER2 overexpressing cell lines (SK-BR-3, BT-474, and N-87) and EGFR expressing cell line (HaCaT).
McCOY'S 5A supplemented with 10% FBS was used for SK-BR-3 cells, RPMI-1640 medium supplemented with 20% FBS was used for BT-474 cancer cells, and RPMI-1640 medium supplemented with 10% FBS was used for N-87 cancer cells. DMEM supplemented with 10% FBS was used for HaCaT cells.
For SK-BR-3 cells, 5000 cells were aliquoted into each well of a white clear bottom 96 well plate (Corning) 48 hours before treatment with the compounds of Examples. For BT-474 cells, 5000 cells were aliquoted into each well of a white clear bottom 96 well plate (Corning) 48 hours before treatment with the compounds of Examples. For N-87 cells, 5000 cells were aliquoted into each well of a white clear bottom 96 well plate (Corning) 24 hours before treatment with the compounds of Examples. For HaCaT cells, 3000 cells were aliquoted into each well of a white clear bottom 96 well plate (Corning) 24 hours before treatment with the compounds of Examples. For SK-BR-3 cells and BT-474 cells, the compounds of Examples were diluted in dimethyl sulfoxide (three-fold dilution, a total of 11 concentrations) and injected each in an amount of 1 μl to a final concentration of 0.2 nM to 10 μM. For N-87 cells, the compounds of Examples were diluted in dimethyl sulfoxide (five-fold dilution, a total of 11 concentrations) and injected each in an amount of 0.5 μl to a final concentration of […] to 5 μM. For HaCaT cells, the compounds of Examples were diluted in dimethyl sulfoxide (three-fold dilution, a total of 11 concentrations) and injected each in an amount of 0.5 μl to a final concentration of 0.8 nM to 45 μM. For the measurement of living cells, the cells were stored at room temperature for 10 minutes using CellTiter-Glo cell viability reagent (Promega) after a certain period of time (SK-BR-3: 120 hours, BT-474: 120 hours, N-87: 72 hours, and HaCaT: 72 hours) post treatment with the compounds of Examples, and the luminescence intensity thereof was measured using a reader (SynergyNeo, Biotek). Each test was repeated three times.
The result values were calculated as a cell growth rate (%) compared to those of the control group. A graph was created using the GraphPad Prism version 5.0 program, and GI50 values were calculated.

Take `C=CC(=O)N1CCC(F)(F)C(Oc2cccc3ncnc(Nc4cc(-c5ccc(F)cc5F)ccc4OC)c23)C1` (centres unmarked) [Example 200, 1-(3-((4-((2′,4′-difluoro-4-methoxy-[1,1′-biphenyl]-3-yl)amino)quinazolin-5-yl)oxy)-4,4-difluoro-piperidin-1-yl)prop-2-en-1-one]: the GI50 in experiment [1] and in experiment [2] was at most 150 nM each time.

With `C=CC(=O)N1CCC(F)(F)C(Oc2cc(OC)cc3ncnc(Nc4cc(-c5ccc(F)cc5F)ccc4OC)c23)C1` (centres unmarked) [Example 201, 1-(3-((4-((2′,4′-difluoro-4-methoxy-[1,1′-biphenyl]-3-yl)amino)-7-methoxy-quinazolin-5-yl)oxy)-4,4-difluoro-piperidin-1-yl)prop-2-en-1-one], the GI50 in experiment [1] and in experiment [2] was at most 150 nM in each case.

For the compound `C=CC(=O)N1CCC(Oc2cc3c(Nc4cc(-c5ccc(F)c(C(F)(F)F)c5F)ccc4OC)ncnc3cc2OC)CC1` [Example 202, 1-(4-((4-((2′,4′-difluoro-4-methoxy-3-(trifluoro-methyl)′-[1,1′-biphenyl]-3-yl)amino)-7-methoxy-quinazolin-6-yl)oxy)piperidin-1-yl)prop-2-en-1-one], the GI50 in experiment [1] is above 1000 nM; in experiment [2], at most 150 nM.

Regarding `C=CC(=O)N1CCC(Oc2cc3c(Nc4cc(-c5ccc(F)c(F)c5F)ccc4OC)ncnc3cc2OC)CC1` [Example 203, 1-(4-((7-methoxy-4-((2′,3′,4′-trifluoro-4-methoxy-[1,1′-biphenyl]-3-yl)amino)quinazolin-6-yl)oxy)piperidin-1-yl)prop-2-en-1-one], the results for the GI50 in experiment [1] and in experiment [2] were 150 to 1000 nM and at most 150 nM, respectively.

Regarding `C=CC(=O)N1CCC(Oc2cc3c(Nc4cc(-c5cccc(C(=O)OC)c5)ccc4OC)ncnc3cc2OC)CC1` [Example 204, methyl 3′-((6-((1-acryloyl-piperidin-4-yl)oxy)-7-methoxy-quinazolin-4-yl)amino)-4′-methoxy-[1,1-biphenyl]-3-carboxylate], the GI50 in experiment [1] is 150 to 1000 nM; in experiment [2], at most 150 nM.

In the case of `C=CC(=O)N1CCC(Oc2cc3c(Nc4cc(-c5cccc(SC)c5)ccc4OC)ncnc3cc2OC)CC1` [Example 205, 1-(4-((7-methoxy-4-((4-methoxy-3′-(methylthio)-[1,1′-biphenyl]-3-yl)amino)quinazolin-6-yl)oxy)piperidin-1-yl)prop-2-en-1-one], the 50% growth inhibitory concentration (GI50) was above 1000 nM in experiment [1] and 150 to 1000 nM in experiment [2].

`C=CC(=O)N1CCC(Oc2cc3c(Nc4cc(-c5ccc(F)c(C)c5F)ccc4OC)ncnc3cc2OC)CC1` [Example 207, 1-(4-((4-((2′,4′-difluoro-4-methoxy-3′-methyl-[1,1′-biphenyl]-3-yl)amino)-7-methoxy-quinazolin-6-yl)oxy)piperidin-1-yl)prop-2-en-1-one]: the GI50 in experiment [1] is 150 to 1000 nM; in experiment [2] it was at most 150 nM.

Consider `C=CC(=O)Nc1cccc(-c2ccc(OC)c(Nc3ncnc4cc(OC)c(OC5CCN(C(=O)C=C)CC5)cc34)c2)c1` [Example 208, N-(3′-((6-((1-acryloyl-piperidin-4-yl)oxy)-7-methoxy-quinazolin-4-yl)amino)-4′-methoxy-[1,1′-biphenyl]-3-yl)acrylamide], for which the 50% growth inhibitory concentration (GI50) in experiment [1] was above 1000 nM; in experiment [2] it was 150 to 1000 nM.

Turning to `C=CC(=O)N1CCC(Nc2cc3c(Nc4cc(-c5cccc(C=O)c5)ccc4OC)ncnc3cc2OC)CC1` [Example 209, 3′-((6-((1-acryloyl-piperidin-4-yl)amino)-7-methoxy-quinazolin-4-yl)amino)-4′-methoxy-[1,1′-biphenyl]-3-carbaldehyde], the concentration for 50% growth inhibition (GI50) in experiment [1] is 150 to 1000 nM; in experiment [2], at most 150 nM.

For `C=CC(=O)N1CCC(Oc2cc3c(Nc4cc(-c5ccc(F)c(OC)c5F)ccc4OC)ncnc3cc2OC)CC1` [Example 210, 1-(4-((4-((2′,4′-difluoro-3′,4-dimethoxy-[1,1′-biphenyl]-3-yl)amino)-7-methoxy-quinazolin-6-yl)oxy)piperidin-1-yl)prop-2-en-1-one], the GI50 was 150 to 1000 nM in experiment [1] and at most 150 nM in experiment [2].
